TGI and GI50 data for nine compounds are collected here from PubChem BioAssay (NCI).

SMILES strings stand for the structures.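 Compound exposure: 48 hours, 5 concentrations, 96-well plates. Abbreviation: GI50, concentration required for 50% inhibition of growth. TGI: concentration producing complete growth inhibition.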

Test systems include A498 renal; HS 578T breast; SK-MEL-2 melanoma; OVCAR-4 ovarian; BT-549 breast; SR leukemia; SW-620 colon; NCI-H460 lung; EKVX NSCLC; KM12 colon; UACC-62 melanoma; UO-31 renal; SNB-75 CNS; MDA-MB-231 breast; SN12C renal; SK-MEL-5 melanoma; SK-MEL-28 melanoma.
Experiment in all cases: NCI anticancer screen, dose series, 48 h

Turning to `C(=NC12CC3CC(CC(C3)C1)C2)C1CCCCC1`, the TGI in the assay on A498 renal, in the assay on HS 578T breast, in the assay with SK-MEL-2 melanoma, in the assay on OVCAR-4 ovarian, in the assay with BT-549 breast and in the assay with SR leukemia was > 100 µM each time. Besides, the TGI in the assay with SW-620 colon, in the assay on NCI-H460 lung, in the assay with EKVX NSCLC, in the assay with KM12 colon, with UACC-62 melanoma and with UO-31 renal was > 100 µM throughout. Further, the TGI in the assay on SNB-75 CNS, in the assay with MDA-MB-231 breast, with SN12C renal and in the assay on SK-MEL-5 melanoma was > 100 µM in each case.

Turning to `N#CCC(=O)N/N=C\C(O)C(O)C(O)C(O)CO` (configuration not stated), the TGI in the assay with A498 renal, in the assay on HS 578T breast, in the assay on SK-MEL-2 melanoma, with BT-549 breast, in the assay with SR leukemia and with SW-620 colon was > 100 µM each time. For the same compound, the TGI with NCI-H460 lung, with KM12 colon, in the assay on UACC-62 melanoma, with SK-MEL-28 melanoma, in the assay with UO-31 renal and in the assay with SNB-75 CNS was > 100 µM throughout. Besides, the TGI in the assay with MDA-MB-231 breast, in the assay with SN12C renal and in the assay on SK-MEL-5 melanoma was > 100 µM in each case.

`Cc1[nH]c(=O)c2oc3cc4ccccc4cc3c2c1C(=O)O`: the TGI in the assay on HS 578T breast, with SK-MEL-2 melanoma, in the assay on OVCAR-4 ovarian, in the assay with BT-549 breast, in the assay with SR leukemia and in the assay on SW-620 colon was > 10 µM each time. Also, the TGI in the assay on NCI-H460 lung, in the assay on EKVX NSCLC, in the assay with KM12 colon, in the assay with UACC-62 melanoma, in the assay on UO-31 renal and with SNB-75 CNS was > 10 µM throughout. Besides, the TGI in the assay with MDA-MB-231 breast and with SN12C renal was > 10 µM throughout.

Take `CC1C(OS(=O)(=O)c2ccc3[nH]c(=S)sc3c2)CC2C3(C)CCC2(C(C)C(=O)O)C(O)C13` (configuration not stated): the TGI with A498 renal was > 100 µM; in the assay on HS 578T breast, > 100 µM; with SK-MEL-2 melanoma, 81.7 µM; with OVCAR-4 ovarian, 94.2 µM; with BT-549 breast, 66 µM; in the assay on SR leukemia it was 64.8 µM. Besides, the TGI with NCI-H460 lung was > 100 µM; in the assay with EKVX NSCLC, > 100 µM; with KM12 colon, 52.4 µM; in the assay with UACC-62 melanoma, 63.3 µM; in the assay on SK-MEL-28 melanoma it was > 100 µM; in the assay on UO-31 renal it was 39.8 µM. Besides, the figures for the TGI in the assay on MDA-MB-231 breast, in the assay with SN12C renal and in the assay with SK-MEL-5 melanoma were > 100 µM, > 100 µM and 34.5 µM, respectively.

For the compound `CS(=O)(=O)CCC1CCC(=O)O1` (configuration not stated), the TGI in the assay with A498 renal, in the assay with HS 578T breast, in the assay on BT-549 breast, in the assay on SR leukemia, with SW-620 colon and in the assay on NCI-H460 lung was > 100 µM throughout. Further, the TGI in the assay with EKVX NSCLC, in the assay on KM12 colon, in the assay with SK-MEL-28 melanoma, in the assay with UO-31 renal, in the assay with SNB-75 CNS and in the assay with MDA-MB-231 breast was > 100 µM each time. Moreover, the TGI with SN12C renal and in the assay with SK-MEL-5 melanoma was > 100 µM each time.

In the case of `O=[N+]([O-])c1ccc2c3c1[C@@H]1O[C@@H]1c1cccc(c1-3)[C@@H]1O[C@H]21`, the TGI in the assay with A498 renal is 8.87 µM; with HS 578T breast, 19.7 µM; with SK-MEL-2 melanoma it was > 23.7 µM; in the assay with OVCAR-4 ovarian, 9.48 µM; with BT-549 breast, 21.1 µM; in the assay with SR leukemia, > 100 µM. The TGI in the assay with SW-620 colon was 6.7 µM; in the assay on EKVX NSCLC, 20.4 µM; in the assay with KM12 colon, 10.1 µM; in the assay on UACC-62 melanoma, 31.6 µM; in the assay with SK-MEL-28 melanoma it was > 22.1 µM; in the assay with SNB-75 CNS, 17.5 µM. Besides, the figures for the TGI with MDA-MB-231 breast, in the assay on SN12C renal and with SK-MEL-5 melanoma were 15.3 µM, 15.7 µM and 27.2 µM, respectively. For the same compound, the GI50 in the assay with SN12C renal was 3.36 µM.

For `CN(Cc1cccc2ccsc12)/N=C\c1ccc(Cl)cc1`, the TGI with A498 renal, in the assay with HS 578T breast, in the assay on OVCAR-4 ovarian, with BT-549 breast, in the assay with SR leukemia and in the assay with SW-620 colon was > 100 µM throughout. The TGI with NCI-H460 lung, in the assay with EKVX NSCLC, in the assay with KM12 colon, in the assay with UACC-62 melanoma, with SK-MEL-28 melanoma and with UO-31 renal was > 100 µM throughout. Besides, the TGI in the assay on SNB-75 CNS was > 100 µM; in the assay on MDA-MB-231 breast, > 100 µM; in the assay on SN12C renal, > 100 µM; in the assay on SK-MEL-5 melanoma, 41.6 µM.

For the compound `N#CC1=C(S)N(C2OC(CO)C(O)C(O)C2O)C(c2ccccc2)=CC1c1ccco1` (configuration not stated), the TGI in the assay on A498 renal, with HS 578T breast, in the assay with SK-MEL-2 melanoma, in the assay on OVCAR-4 ovarian, with BT-549 breast and in the assay with SR leukemia was > 100 µM in each case. Besides, the TGI was > 100 µM with NCI-H460 lung; > 100 µM with KM12 colon; 42.1 µM in the assay with UACC-62 melanoma; > 100 µM in the assay on SK-MEL-28 melanoma; > 100 µM in the assay on UO-31 renal; 45.1 µM in the assay with SNB-75 CNS. Also, the TGI with MDA-MB-231 breast, with SN12C renal and with SK-MEL-5 melanoma was > 100 µM each time.

With `COc1ccc(/C=C2\C[C@H]3[C@@H]4CC=C5C[C@@H](O)CC[C@]5(C)[C@H]4CC[C@]3(C)\C2=N\O)cc1`, the TGI in the assay on A498 renal was 71.7 µM; in the assay with HS 578T breast it was 37.5 µM; in the assay with SK-MEL-2 melanoma it was 39.8 µM; with OVCAR-4 ovarian, > 100 µM; in the assay with BT-549 breast it was 36.5 µM; in the assay on SR leukemia, 19 µM. Further, the TGI with SW-620 colon was > 100 µM; in the assay with NCI-H460 lung it was > 100 µM; in the assay with EKVX NSCLC, 8.78 µM; in the assay with KM12 colon, > 100 µM; with UACC-62 melanoma it was 50.3 µM; with SK-MEL-28 melanoma it was 72.8 µM. The TGI in the assay on UO-31 renal is 71.6 µM; in the assay on MDA-MB-231 breast it was > 100 µM; in the assay with SN12C renal, 44.4 µM; with SK-MEL-5 melanoma, 23.3 µM.
